Reference: ChEMBL document CHEMBL1201862, “PubChem BioAssay data set” (2004)
Calls of active or inactive are those of the source.

What was measured:
[1] = fluconazole-exposed Candida albicans growth modulators – fluorescence, retest, confirmation (AID 2467); format: functional, cell-based
[2] = microbe, parasite or virus in culture; format: functional; conditions: Mycobacterium tuberculosis
[3] = NIH-3T3 fibroblast cytotoxicity, dose response, cytotoxicity control, cell-based, fluorescence, Alamar Blue, secondary assay (AID 2327); format: functional;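 also: NIH-3T3 mouse fibroblasts cultured with fluconazole at 8 µg/mL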
Large T antigen = Large T antigen (Simian virus 40, UniProt P03070); format: functional, Betapolyomavirus macacae;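 also: Confirmatory-stage PubChem screen for compounds that inhibit SV40 T antigen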
[4] = target: T1, Zinc finger protein mex-5 (Caenorhabditis elegans, UniProt Q9XUB2); test: potency of MEX-5 RNA-binding blockers – biochemical, C. elegans, fluorescence polarization, dose response (AID 1960)
T1 sequence (Q9XUB2 whole entry): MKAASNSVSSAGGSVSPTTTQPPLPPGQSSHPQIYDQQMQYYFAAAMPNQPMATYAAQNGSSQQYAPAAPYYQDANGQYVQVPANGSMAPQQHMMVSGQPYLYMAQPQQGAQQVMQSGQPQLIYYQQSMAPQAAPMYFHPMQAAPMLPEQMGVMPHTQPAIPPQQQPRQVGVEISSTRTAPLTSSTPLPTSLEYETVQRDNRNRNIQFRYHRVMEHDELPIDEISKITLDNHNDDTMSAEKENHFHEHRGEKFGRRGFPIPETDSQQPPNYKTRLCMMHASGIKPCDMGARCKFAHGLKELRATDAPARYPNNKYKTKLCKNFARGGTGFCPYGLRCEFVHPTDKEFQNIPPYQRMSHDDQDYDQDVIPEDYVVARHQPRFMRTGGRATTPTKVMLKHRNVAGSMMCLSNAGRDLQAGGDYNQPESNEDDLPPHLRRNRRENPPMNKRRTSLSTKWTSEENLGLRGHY

Cytochrome P450 3A4 = Cytochrome P450 3A4 (Homo sapiens, UniProt P08684); conditions: Potency;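 also: confirmatory qHTS run detecting inhibitors and substrates of CYP3A4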
[5] = target: T2, RNA-binding protein pos-1 (Caenorhabditis elegans, UniProt G5EF15); test: disruptors of C. elegans POS-1 RNA interaction – biochemical, fluorescence polarization, dose response (AID 1964);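 also: purified POS-1 fused to maltose binding protein made in E. coli; potency of compounds blocking POS-1 binding to fluorescent RNA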
T2 sequence (G5EF15 whole entry): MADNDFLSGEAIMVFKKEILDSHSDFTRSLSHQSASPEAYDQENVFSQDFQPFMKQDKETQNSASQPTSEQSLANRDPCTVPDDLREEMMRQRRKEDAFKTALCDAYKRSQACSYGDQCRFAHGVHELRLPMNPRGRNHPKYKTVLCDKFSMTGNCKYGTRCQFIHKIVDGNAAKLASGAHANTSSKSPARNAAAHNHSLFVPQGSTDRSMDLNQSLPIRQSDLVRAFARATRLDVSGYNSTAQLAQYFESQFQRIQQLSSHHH

[6] = reduction of Shn3 3'UTR-driven luciferase in osteoblasts – cell-based, Clone20 osteoblasts, firefly luciferase, cherry-picked, dose response (AID 624132); format: functional;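 also: firefly luciferase luminescence from reporter carrying the Shn3 3'UTR in osteoblasts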
[7] = non-specific 3'UTR reporter inhibition in Clone20-Shn3RL – cell-based, Renilla luciferase, cherry-picked, counter-screen for Shn3 inhibitor project, dose response (AID 624133); format: functional
[8] = loss of viability in HepG2 cells – cell-based, CellTiter-Glo, cherry-picked, cytotoxicity control for Shn3 inhibitor project, dose response (AID 624134); format: functional
[9] = Luminescence Cell-Based Dose Response HTS to Identify Inhibitors of 5'UTR Stem-Loop Driven Prion Protein mRNA Translation in H4 Neuroglioblastoma Cells. [Related pubchem assays: 1827 (Project Summary), 1813 (Primary HTS)]; format: functional
H9c2 = test: cells; format: functional, cell-based; conditions: Rattus norvegicus, H9c2, Myocardium;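 also: confirmatory concentration-response retest of ultra-high-throughput screening hits for modulation of myocardial damage; cell death induced by hydrogen peroxide oxidative stress; compound pretreatment for 60 min then peroxide exposure for 2 h; potency is for protecting the cells against peroxide damage rather than for killing them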
[10] = luciferase reporter signal suppression in cells – H4 neuroglioma cells, luminescence, dose response (AID 1990); format: functional, cell-based
[11] = alpha-synuclein stem-loop luciferase translation blockers – H4 neuroglioma cells, luminescence, confirmation (AID 1988); format: functional, cell-based
INS1 = test: INS-1E survival protection against cytokine death – cell-based, luminescence, retest, dose response (AID 449756); format: functional; conditions: Rattus norvegicus;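 also: cell death triggered by IL-1 beta plus TNF-alpha plus IFN-gamma mixture; protective hits raise ATP signal compared with cytokine alone wells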
[12] = target: T3, Microphthalmia-associated transcription factor (Homo sapiens, UniProt O75030); test: reducers of TRPM1 reporter luminescence, concentration series – cell-based, SK-MEL-5, cherry-picked, set 3, MITF inhibitor project, dose response (AID 493073); format: functional;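 also: SK-MEL-5 melanoma cells with luciferase driven by the MITF target TRPM1 promoter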
T3 sequence (O75030 whole entry): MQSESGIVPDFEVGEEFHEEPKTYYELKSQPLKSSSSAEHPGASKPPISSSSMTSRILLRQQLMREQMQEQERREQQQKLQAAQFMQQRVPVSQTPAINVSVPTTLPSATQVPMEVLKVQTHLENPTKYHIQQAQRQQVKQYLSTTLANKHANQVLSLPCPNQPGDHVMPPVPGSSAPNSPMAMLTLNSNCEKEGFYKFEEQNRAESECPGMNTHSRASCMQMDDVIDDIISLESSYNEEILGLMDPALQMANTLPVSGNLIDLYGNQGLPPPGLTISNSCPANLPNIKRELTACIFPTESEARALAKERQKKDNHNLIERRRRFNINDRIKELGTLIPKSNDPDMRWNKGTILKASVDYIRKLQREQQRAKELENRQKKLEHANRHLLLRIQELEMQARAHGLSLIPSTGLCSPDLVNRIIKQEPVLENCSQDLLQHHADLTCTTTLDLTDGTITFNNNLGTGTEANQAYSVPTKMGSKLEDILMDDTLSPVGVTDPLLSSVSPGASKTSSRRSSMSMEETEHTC

Vero = test: cells; format: functional; conditions: Chlorocebus sabaeus
[13] = target: T4, Rac GTPase-activating protein 1 (Homo sapiens, UniProt Q9H0H5); test: blockers of MgcRacGAP-driven Rac1 GTP hydrolysis – biochemical, ADP Hunter fluorescence, primary and confirmatory, confirmation (AID 624330); format: functional
T4 sequence (Q9H0H5 whole entry): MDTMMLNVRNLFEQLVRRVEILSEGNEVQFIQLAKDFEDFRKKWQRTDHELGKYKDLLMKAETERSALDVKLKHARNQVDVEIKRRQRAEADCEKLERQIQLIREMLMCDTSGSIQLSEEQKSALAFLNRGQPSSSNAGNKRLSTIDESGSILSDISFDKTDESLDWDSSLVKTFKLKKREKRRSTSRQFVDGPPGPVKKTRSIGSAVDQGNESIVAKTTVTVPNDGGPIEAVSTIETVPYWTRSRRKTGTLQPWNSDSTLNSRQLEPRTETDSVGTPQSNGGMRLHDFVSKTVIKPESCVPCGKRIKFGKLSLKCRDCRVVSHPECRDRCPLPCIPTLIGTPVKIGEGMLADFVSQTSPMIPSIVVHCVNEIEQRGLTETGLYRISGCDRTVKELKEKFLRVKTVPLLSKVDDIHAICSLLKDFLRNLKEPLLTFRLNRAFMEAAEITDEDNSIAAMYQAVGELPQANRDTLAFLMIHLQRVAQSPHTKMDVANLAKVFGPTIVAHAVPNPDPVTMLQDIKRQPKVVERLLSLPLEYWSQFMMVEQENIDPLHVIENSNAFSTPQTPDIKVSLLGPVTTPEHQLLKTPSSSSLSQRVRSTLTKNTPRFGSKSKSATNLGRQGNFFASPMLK

[14] = system: Streptococcus sp. 'group A'; test: Streptococcus pyogenes SK(-)GAS viability under kanamycin – luminescence, BacTiterGlo, confirmation, counter-screen for streptokinase expression inhibitor project, dose response (AID 1900); format: functional, organism-based
Streptococcus = test: GAS UMAA2166 growth inhibition – luminescence, BacTiterGlo, counter-screen for streptokinase expression inhibitor project, dose response (AID 1915); format: functional, organism-based;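 also: potency for reduction of bacterial viability or growth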

Cytochrome P450 3A4, sequence (P08684 whole entry, the tested form may be a part): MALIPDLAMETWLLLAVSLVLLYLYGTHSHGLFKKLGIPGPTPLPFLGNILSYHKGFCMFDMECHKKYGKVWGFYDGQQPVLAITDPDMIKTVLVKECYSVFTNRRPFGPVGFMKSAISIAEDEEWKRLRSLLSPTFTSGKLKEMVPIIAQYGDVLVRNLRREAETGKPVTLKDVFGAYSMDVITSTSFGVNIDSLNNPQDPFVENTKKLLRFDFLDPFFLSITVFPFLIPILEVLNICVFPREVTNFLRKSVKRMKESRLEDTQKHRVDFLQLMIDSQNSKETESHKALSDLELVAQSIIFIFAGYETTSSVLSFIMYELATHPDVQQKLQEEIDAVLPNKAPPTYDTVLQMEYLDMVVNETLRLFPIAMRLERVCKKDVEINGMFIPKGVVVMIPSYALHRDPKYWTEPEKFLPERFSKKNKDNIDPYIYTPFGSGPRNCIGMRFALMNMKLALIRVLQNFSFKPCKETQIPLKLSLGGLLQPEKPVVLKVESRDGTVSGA
Large T antigen, sequence (P03070 whole entry): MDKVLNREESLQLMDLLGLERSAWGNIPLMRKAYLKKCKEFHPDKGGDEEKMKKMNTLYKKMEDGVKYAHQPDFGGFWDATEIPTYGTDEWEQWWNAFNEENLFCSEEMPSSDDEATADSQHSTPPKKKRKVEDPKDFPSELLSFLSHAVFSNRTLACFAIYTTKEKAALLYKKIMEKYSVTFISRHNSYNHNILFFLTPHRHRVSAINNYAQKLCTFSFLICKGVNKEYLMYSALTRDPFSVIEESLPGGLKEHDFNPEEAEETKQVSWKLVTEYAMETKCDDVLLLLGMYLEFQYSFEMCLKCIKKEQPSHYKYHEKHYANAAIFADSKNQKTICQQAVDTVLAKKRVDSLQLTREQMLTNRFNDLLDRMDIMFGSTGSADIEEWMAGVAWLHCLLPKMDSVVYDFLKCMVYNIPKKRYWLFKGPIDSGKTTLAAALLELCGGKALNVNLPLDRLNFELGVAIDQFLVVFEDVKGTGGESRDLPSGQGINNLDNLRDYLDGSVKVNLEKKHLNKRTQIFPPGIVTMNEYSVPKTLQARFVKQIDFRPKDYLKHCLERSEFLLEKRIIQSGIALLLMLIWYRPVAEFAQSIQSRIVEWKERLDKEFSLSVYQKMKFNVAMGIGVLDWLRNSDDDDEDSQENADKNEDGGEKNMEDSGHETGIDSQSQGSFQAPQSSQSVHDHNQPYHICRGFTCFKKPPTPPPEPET

Structure (SMILES): CCC(=O)N1c2ccc(S(=O)(=O)CCC(=O)N3CCn4c3nc3ccccc34)cc2CC1C (stereo not given)
- EC50 [1]: 4.5 µM (active)
- CC50 [2]: > 40 µM (active)
- EC50 [3]: 42.9 µM (active)

Structure (SMILES): Cc1cc(O)nc(N/N=C/c2c[nH]c3ccccc23)n1
- IC50 (Large T antigen): 24.6 µM (active)

Structure (SMILES): COC(=O)c1ccc(C23CC4(C2)[C@H](CN(Cc2ccc(C(F)(F)F)cc2)[C@@H]4c2ccccc2)C3c2ccccc2)cc1 (stereo not given in full)
- EC50 [4]: > 300 µM (not active)
- AC50 (Cytochrome P450 3A4): 25.1 µM (inconclusive)
- EC50 [5]: > 300 µM (not active)

Structure (SMILES): c1ccc(CN2CCN(c3ncnc4c3[nH]c3ccccc34)CC2)cc1
- AC50 [6]: 2.06 µM (active)
- AC50 [7]: 5.4 µM (active)
- AC50 [8]: 31.4 µM (active)

Structure (SMILES): CC(C)(C)c1ccc(OCC(=O)Nc2ccc3c4c(cccc24)C(=O)NC3=O)cc1
- EC50 [9]: 10.8 µM (active)
- IC50 (H9c2): 20.9 µM (active)
- EC50 [10]: > 120 µM (not active)
- EC50 [11]: > 120 µM (not active)

Structure (SMILES): COc1cc(/C=C2\C(=O)NN(c3ccccc3)C2=O)cc([N+](=O)[O-])c1O
- EC50 [4]: 37.5 µM (active)
- IC50 (Large T antigen): > 100 µM (active)
- EC50 [1]: > 38 µM (not active)
- EC50 [5]: > 300 µM (not active)
- EC50 [3]: 21.2 µM (inconclusive)

Structure (SMILES): Oc1ccc(Nc2nc(Cl)nc(NCc3ccco3)n2)cc1
- IC50 (Large T antigen): 10.7 µM (active)

Structure (SMILES): CCOc1ccc(S(=O)(=O)N(C)c2ccc(OCC(=O)Nc3nc4ccccc4s3)cc2)cc1
- AC50 [6]: 2.82 µM (active)
- AC50 [7]: 4.06 µM (active)
- AC50 (INS1): 7.73 µM (active)
- AC50 [8]: 34.6 µM (active)

Structure (SMILES): C=C1C(=O)O[C@@]23[C@H]1CC[C@@H](C)[C@@H]2CC[C@@]1(C)O[C@@H]31 [ARTEANNUIN B]
- AC50 [12]: 5.22 µM (active)

Structure (SMILES): CCc1ccc(NCc2ccc(OC)c(Cn3ccnc3)c2)cc1
- CC50 [2]: 24.2 µM (active)

Structure (SMILES): Cc1ccc(NC(CNS(=O)(=O)c2ccc(Cl)cc2)c2ccccc2)cc1 (stereo not given)
- EC50 [9]: 45.4 µM (active)
- EC50 [10]: > 120 µM (not active)
- EC50 [11]: 10.3 µM (active)

Structure (SMILES): Cc1cccc(C(=O)Nc2cccc(S(=O)(=O)NCc3ccco3)c2)c1
- CC50 (Vero): 23.6 µM (active)

Structure (SMILES): O=C(Nc1ccc(N2CCOCC2)c(Cl)c1)c1c(F)c(F)c(F)c(F)c1F
- CC50 [2]: > 40 µM (active)

Structure (SMILES): Cc1c(C(=O)Nc2ccc(F)c(F)c2)oc2ccc(S(=O)(=O)N3CCCCC3)cc12
- AC50 [6]: 7.05 µM (active)
- AC50 [7]: 28 µM (active)
- AC50 [8]: > 70 µM (inactive)

Structure (SMILES): COC(=O)/C=C/C(=O)Nc1ccc(O)c(Cl)c1
- IC50 (Large T antigen): 11.7 µM (active)

Structure (SMILES): COc1ccccc1-c1nnc(NC(=O)c2ccc(S(=O)(=O)N(C)C)cc2)o1
- EC50 [9]: > 120 µM (not active)
- EC50 [10]: > 120 µM (not active)
- EC50 [11]: > 120 µM (not active)

Structure (SMILES): O=C(COc1cccc2cccnc12)N/N=C/c1ccc(O)cc1
- IC50 (Large T antigen): 19.5 µM (active)
- IC50 [13]: 77 µM (active)

Structure (SMILES): CN1CC(CO)=C[C@H]2c3cccc4[nH]cc(c34)C[C@H]21
- AC50 (Cytochrome P450 3A4): 39.8 µM (inconclusive)

Structure (SMILES): Cc1cc(O)c(C=O)c2c1C(=O)Oc1c(COC(=O)/C=C/C(=O)O)c(O)c(C(=O)O)c(C)c1O2 [FUMARPROTOCETRARIC ACID]
- AC50 (Cytochrome P450 3A4): 39.8 µM (inconclusive)

Structure (SMILES): CC(C)N1CCc2c(sc(NC(=O)c3ccc4ccccc4c3)c2C(N)=O)C1
- EC50 [4]: > 300 µM (inconclusive)
- EC50 [5]: > 300 µM (not active)
- CC50 (Vero): > 25 µM (active)

Structure (SMILES): CCCn1c(C)nc2c(NC(C)CCCN(CC)CC)nc(C)nc21 (stereo not given)
- AC50 (Cytochrome P450 3A4): 25.1 µM (inconclusive)

Structure (SMILES): C=CCn1c(SCc2ccc(C#N)cc2)nnc1-c1cccc(OC)c1
- EC50 [9]: 48.7 µM (active)
- EC50 [10]: 18.6 µM (active)
- EC50 [11]: > 120 µM (not active)

Structure (SMILES): CCN1C(=O)/C(=C/c2c[nH]nc2-c2ccccc2)SC1=S
- EC50 [9]: > 120 µM (not active)
- EC50 [10]: > 120 µM (not active)
- EC50 [11]: > 120 µM (not active)

Structure (SMILES): CCCSc1nn2c(=O)c3ccccc3nc2s1
- CC50 [2]: > 40 µM (active)

Structure (SMILES): C=C1C(=O)OC2CC1C(OC(C)=O)CC(C)=CCCC(C)=CCCC2(C)O (stereo not given)
- AC50 [6]: 0.91 µM (active)
- AC50 [7]: 4.19 µM (active)
- AC50 [8]: 15.1 µM (active)

Structure (SMILES): COc1ccc(-c2coc3cc(OC(C)=O)cc(OC(C)=O)c3c2=O)cc1
- AC50 (Cytochrome P450 3A4): 31.6 µM (inconclusive)

Structure (SMILES): CCCCN(CCCC)c1nc(-c2ccncc2)nc2ccccc12
- EC50 [14]: 5.38 µM (active)
- EC50 (Streptococcus): 8.44 µM (active)
- CC50 [2]: 29.3 µM (active)

Structure (SMILES): COc1cc(/C=C/C(=O)OCC(=O)Nc2ccc(S(N)(=O)=O)cc2)ccc1O
- IC50 (Large T antigen): 20 µM (active)

Structure (SMILES): COc1cc(/C=N/N2C(=O)C3C4C=CC(CC4)C3C2=O)ccc1O (stereo not given)
- IC50 (Large T antigen): 10.1 µM (active)

Structure (SMILES): CCOc1ccc(NC(=S)N2CCC(NC(=O)c3ccccc3C)CC2)cc1
- EC50 [9]: > 120 µM (not active)
- EC50 [10]: > 120 µM (not active)
- EC50 [11]: > 120 µM (not active)
